Values joined by “and” are separate entries in the source; they are usually repeats but may differ in a detail not shown here. Identical values can stand only once. Like-named read-outs stand apart in the source and are kept apart here.
Experiments:
LACV EndoN [1] = target: T1, LACV EndoN (Bunyavirus La Crosse, UniProt A5HC98); experiment: Microscale thermophoresis (MST) binding affinity; set-up: species or system La Crosse virus; details: for Kd: Affinity K d, labelled protein 50 or 100 nM, 0.5 mM MnCl2, 5% DMSO, n = 3; for fold better affinity than DPBA: ratio of K d values versus DPBA
Target sequence in this assay (A5HC98 1-185): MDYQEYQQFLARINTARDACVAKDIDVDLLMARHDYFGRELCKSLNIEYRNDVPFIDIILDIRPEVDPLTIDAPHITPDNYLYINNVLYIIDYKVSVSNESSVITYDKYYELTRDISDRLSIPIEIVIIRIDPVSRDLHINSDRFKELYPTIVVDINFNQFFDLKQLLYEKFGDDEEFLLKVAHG

LACV EndoN [2] = target: T1, LACV EndoN; experiment: In vitro endonuclease FRET assay; assay type: biochemical, La Crosse virus; details: for fold greater inhibition efficiency than DPBA: ratio of IC50 values versus DPBA
Method: An in vitro endonuclease assay was used to investigate the inhibition of LACV EndoN by DPBA, L-742,001 and baloxavir. The reaction was conducted using a 20 µl sample in 20 mM Tris pH 7.6, 150 mM NaCl, 0.01% Tween 20, 1 mM DTT and was supplemented with 1 mM freshly prepared MnCl2. The 19-mer RNA at a concentration of 50 nM and a gradient concentration of inhibitor (from 0.004 to 100 µM) were pre-incubated at 25°C in the reaction buffer. The reaction was started upon the addition of LACV EndoN (pre-mixed with 1 mM MnCl2 and pre-incubated at 25°C for 5 min) at a final concentration of 0.25 µM. Fluorescence upon RNA cleavage was followed in a PHERAstar FSX microplate reader (BMG Labtech, Germany) at 25°C using wavelengths of 465 nm for excitation and 520 nm for emission.
The inhibition efficacies of the three ligands were tested against LACV EndoN in an endonuclease FRET assay and the results are summarized in Table 2 ▸. This was performed following the cleavage of a 19-mer RNA labelled with a 5′ fluorescent probe (6-FAM) and a 3′ quencher (BHQ1) in the presence of a range of ligand concentrations upon the addition of 0.25 µM LACV EndoN. In this FRET inhibition assay, the order in which the three partners of the catalytic complex (protein, ions and substrate RNA) are introduced is decisive. The reaction is triggered by adding the protein pre-incubated with ions to a mixture containing substrate RNA, ions and ligand. The design of the assay may constitute a limitation to the complete assessment of the binding efficiency of baloxavir to the enzyme, given the competition between substrate RNA, free ions and ligand. As described for FLUV, baloxavir is a tight-binding inhibitor with slow dissociation and acts by preventing binding of the RNA substrate (Omoto et al., 2018[▸]; Todd et al., 2021[▸]). In the context of the current biochemical assay, the interplay between the RNA substrate and the ligand presents an unfavourable scenario for binding of the metal-chelating ligand. […] This unexpected uniformity of the inhibition values underscores the remarkable potency of these compounds in the face of a challenging biochemical landscape.
Target sequence in this assay (A5HC98 1-185): as above

LACV EndoN [3] = target: T1, LACV EndoN; assay type: binding, La Crosse virus; details: for greater stabilization compared with DPBA: difference in ΔT m versus DPBA, with 0.5 mM MnCl2; for Stability ΔT m: 50 µM compound, 5 µM protein, baseline LACV EndoN in the presence of manganese (T m ≃ 56°C)
Method: The influence of compound binding on the stability of LACV EndoN was measured by a Thermofluor assay using a CFX Connect Bio-Rad real-time PCR machine at a protein concentration of 5 µM in a buffer consisting of 20 mM Tris–HCl pH 7.6, 150 mM NaCl, 2.5 mM β-mercaptoethanol supplemented with 0.5 mM freshly prepared MnCl2. The compound concentration was fixed at 50 µM (5% DMSO). In 96-well thin-walled PCR plates, 1 µl inhibitor was added to 17 µl buffer followed by the addition of 2 µl protein. Finally, 2 µl of the fluorescent dye SYPRO Orange (Thermo Fisher, catalog No. 4461146) was added (a fivefold final concentration). Controls were performed using the same protocol without MnCl2. The melting-temperature (T m) values given are the average and standard deviation of three independent experiments.
DSF is used to assess protein stabilization or destabilization upon the addition of cofactors by measuring the thermal stability (the thermal melting transition T m) arising from interaction with a fluorescent dye (SYPRO Orange) during denaturation.
(c) Structures of the studied ligands.
Target sequence in this assay (A5HC98 1-183): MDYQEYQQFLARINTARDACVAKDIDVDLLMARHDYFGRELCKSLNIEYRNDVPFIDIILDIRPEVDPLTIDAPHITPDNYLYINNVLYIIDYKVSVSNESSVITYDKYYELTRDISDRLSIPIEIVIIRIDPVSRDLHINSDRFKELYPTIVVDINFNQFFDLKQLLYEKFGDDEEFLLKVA

FLUV PA-Nter = target: FLUV PA-Nter; set-up: method as in DuBois et al., 2012; details: ref DuBois et al., 2012; cited from earlier work
LCMV EndoN = details: ref Saez-Ayala et al., 2018, 2019; cited from earlier work

| Compound | Kd (LACV EndoN [1]) | fold better affinity than DPBA (LACV EndoN [1]) | IC50 (LACV EndoN [2]) | fold greater inhibition efficiency than DPBA (LACV EndoN [2]) | greater stabilization compared with DPBA (LACV EndoN [3]) | T m increase upon addition of metal ions (LACV EndoN [3]; 0.5 mM MnCl2, versus LACV EndoN without ions (T m of 49°C)) | Kd (FLUV PA-Nter) | Kd (LCMV EndoN) | Stability ΔT m (LACV EndoN [3]; 0.5 mM MnCl2) | Stability ΔT m (LACV EndoN [3]; 0.5 mM MnCl2, listed as baloxavir) |
| --- | --- | --- | --- | --- | --- | --- | --- | --- | --- | --- |
| O=C(O)/C(O)=C/C(=O)C1(Cc2ccc(Cl)cc2)CCN(Cc2ccccc2)CC1 [L-742,001, (Z)-4-{1-benzyl-4-[(4-chlorophenyl)methyl]-piperidin-4-yl}-2-hydroxy-4-oxobut-2-enoic acid] | 600 nM and 614 nM | twofold | 650 ± 30 nM | 1.5 fold | +4 °C |  |  |  |  |  |
| [Cl][Mn][Cl] [MnCl2] |  |  |  |  |  | ~7 °C |  |  |  |  |
| O=C(O)C(=O)CC(=O)c1ccccc1 [DPBA, 2,4-Dioxo-4-phenylbutanoic acid] | 1350 ± 250 nM |  | 990 ± 60 nM |  |  |  | 4500 nM | 5400 nM |  |  |
| O=C1c2c(O)c(=O)ccn2N([C@@H]2c3ccccc3SCc3c2ccc(F)c3F)[C@@H]2COCCN12 [Baloxavir, (R)-12-((S)-7,8-Difluoro-6,11-dihydrodibenzo[b,e]thiepin-11-yl)-7-hydroxy-3,4,12,12a-tetrahydro-1H-[1,4]oxazino[3,4-c]pyrido[2,1-f][1,2,4]triazine-6,8-dione] | 19 ± 6 nM | 68 fold | 340 ± 20 nM | threefold | +6 °C |  |  |  | +12.72 ± 0.18 °C | ~13 °C |
